ChEMBL document CHEMBL4371025, “Discovery and evaluation of novel FAAH inhibitors in neuropathic pain model” (Bioorg Med Chem Lett, 2019)
Activity calls are given as the source filed them. No cut-off for these calls is given here.

Assays:
[1] = target: T1, Fatty-acid amide hydrolase 1 (Rattus norvegicus, UniProt P97612); test: Inhibition of rat FFAH expressed in Escherichia coli using AAMCA as substrate incubated for 1 min measured for 50 mins by fluorescence assay
T1 sequence (P97612 whole entry): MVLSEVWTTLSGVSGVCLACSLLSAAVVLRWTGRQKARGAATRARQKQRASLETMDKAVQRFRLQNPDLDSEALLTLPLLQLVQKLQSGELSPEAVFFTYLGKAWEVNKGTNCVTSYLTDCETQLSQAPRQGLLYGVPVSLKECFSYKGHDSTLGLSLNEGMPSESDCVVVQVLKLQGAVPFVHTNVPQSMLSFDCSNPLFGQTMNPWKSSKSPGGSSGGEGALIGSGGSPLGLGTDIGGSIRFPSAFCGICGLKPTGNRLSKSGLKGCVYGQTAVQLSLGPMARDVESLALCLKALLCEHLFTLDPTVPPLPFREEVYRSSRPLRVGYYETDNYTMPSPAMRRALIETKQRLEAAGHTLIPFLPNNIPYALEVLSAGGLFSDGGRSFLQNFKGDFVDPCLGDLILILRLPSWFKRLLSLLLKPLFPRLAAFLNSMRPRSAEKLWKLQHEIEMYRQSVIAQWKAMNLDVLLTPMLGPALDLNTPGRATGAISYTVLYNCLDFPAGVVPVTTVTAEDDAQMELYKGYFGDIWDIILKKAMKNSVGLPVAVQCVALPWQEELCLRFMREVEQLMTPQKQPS

[2] = target: T2, Fatty-acid amide hydrolase 1 (Homo sapiens, UniProt O00519); test: Inhibition of human transmembrane domain deficient FFAH expressed in Escherichia coli using AAMCA as substrate incubated for 1 min measured for 50 mins by fluorescence assay
T2 sequence (O00519 whole entry): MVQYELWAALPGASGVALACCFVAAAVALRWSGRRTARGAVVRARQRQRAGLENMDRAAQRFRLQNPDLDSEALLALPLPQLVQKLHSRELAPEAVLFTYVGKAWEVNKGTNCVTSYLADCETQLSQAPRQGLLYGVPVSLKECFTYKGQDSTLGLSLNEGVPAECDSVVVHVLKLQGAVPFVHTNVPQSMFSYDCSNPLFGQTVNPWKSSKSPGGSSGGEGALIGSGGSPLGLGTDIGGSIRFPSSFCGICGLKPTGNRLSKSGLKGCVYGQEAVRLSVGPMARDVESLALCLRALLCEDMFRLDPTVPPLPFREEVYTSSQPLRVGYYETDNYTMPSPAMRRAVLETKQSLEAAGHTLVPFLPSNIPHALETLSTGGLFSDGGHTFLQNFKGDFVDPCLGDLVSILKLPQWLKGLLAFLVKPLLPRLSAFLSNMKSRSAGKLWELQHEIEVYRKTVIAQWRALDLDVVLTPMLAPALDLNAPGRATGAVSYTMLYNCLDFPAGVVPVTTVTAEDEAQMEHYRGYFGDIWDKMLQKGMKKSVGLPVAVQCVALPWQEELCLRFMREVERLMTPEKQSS

Rattus norvegicus [3] = test: Antihyperalgesic activity in Sprague-Dawley rat model of cisplatin-induced peripheral neuropathy assessed as increase in paw withdrawal latency at 10 mg/kg, po administered once daily via gavage for 7 days measured 4 hrs post last dose by plantar test; format: functional, organism-based
[4] = Intrinsic metabolic stability in human liver microsomes assessed as metabolic turnover rate per mg protein at 1 uM preincubated for 5 mins followed by NADPH cofactor addition and measured after 30 mins by LC-MS/MS analysis; format: ADME, Microsome; details: 0.5 h
[5] = Intrinsic metabolic stability in rat liver microsomes assessed as metabolic turnover over per mg protein at 1 uM preincubated for 5 mins followed by NADPH cofactor addition and measured after 30 mins by LC-MS/MS analysis; format: ADME, Microsome; details: 0.5 h
[6] = target: T3, Fatty-acid amide hydrolase 1 (Rattus norvegicus) (UniProt P97612); test: Inhibition of rat FFAH expressed in Escherichia coli at 10 uM using AAMCA as substrate incubated for 1 min measured for 50 mins by fluorescence assay relative to control
T3 sequence (whole entry): T1 sequence (P97612 whole entry)

Rattus norvegicus [7] = test: Antihyperalgesic activity in Sprague-Dawley rat model of cisplatin-induced peripheral neuropathy assessed as increase in paw withdrawal latency at 30 mg/kg, po administered as single dose via gavage measured 4 hrs post dose by plantar test; format: functional, organism-based
Rattus norvegicus [8] = test: Antihyperalgesic activity in Sprague-Dawley rat model of cisplatin-induced peripheral neuropathy assessed as increase in paw withdrawal latency at 30 mg/kg, po administered once daily via gavage for 7 days measured 4 hrs post last dose by plantar test; format: functional, organism-based
Rattus norvegicus [9] = test: Antihyperalgesic activity in Sprague-Dawley rat model of cisplatin-induced peripheral neuropathy assessed as increase in paw withdrawal latency at 30 mg/kg, po administered once daily via gavage for 6 days measured 24 hrs post last dose by plantar test; format: functional, organism-based
Rattus norvegicus [10] = test: Antihyperalgesic activity in Sprague-Dawley rat model of cisplatin-induced peripheral neuropathy assessed as increase in paw withdrawal latency at 3 mg/kg, po administered as single dose via gavage measured 4 hrs post dose by plantar test; format: functional, organism-based
[11] = target: T3, Fatty-acid amide hydrolase 1 (Rattus norvegicus); test: Inhibition of rat FFAH expressed in Escherichia coli at 100 nM using AAMCA as substrate incubated for 1 min measured for 50 mins by fluorescence assay relative to control
[12] = Clearance in Sprague-Dawley rat at 1 mg/kg, iv administered as single dose by LC-MS/MS analysis; format: ADME, organism-based; details: in vivo
[13] = Volume of distribution at steady state in Sprague-Dawley rat at 1 mg/kg, iv administered as single dose by LC-MS/MS analysis; format: ADME, organism-based; details: in vivo, read-out: Vdss
[14] = Cmax in Sprague-Dawley rat at 10 mg/kg, po administered as single dose via gavage by LC-MS/MS analysis; format: ADME, organism-based; design: dose 10 mg/kg, route oral; details: in vivo
[15] = Elimination half life in Sprague-Dawley rat at 1 mg/kg, iv administered as single dose by LC-MS/MS analysis; format: ADME, organism-based; details: in vivo, read-out: beta t1/2 (converted)
[16] = AUC (0 to 48 hrs) in Sprague-Dawley rat at 1 mg/kg, iv administered as single dose by LC-MS/MS analysis; format: ADME, organism-based; design: dose 1 mg/kg, time < 48 hr, route intravenous; details: in vivo
[17] = AUC (0 to 48 hrs) in plasma of Sprague-Dawley rat at 10 mg/kg, po administered as single dose via gavage by LC-MS/MS analysis; format: ADME, organism-based; design: time < 48 hr, dose 10 mg/kg, route oral
[18] = Oral bioavailability in Sprague-Dawley rat at 10 mg/kg administered as single dose via gavage by LC-MS/MS analysis; format: ADME, organism-based; details: in vivo
[19] = target: T4, Fatty-acid amide hydrolase 1 (Homo sapiens) (UniProt O00519); test: Reversible inhibition of human transmembrane domain deficient FFAH expressed in Escherichia coli assessed as residual activity at 10 times IC50 using AAMCA as substrate preincubated for 1 hr followed by substrate addition and subsequent 10 fold compound dilution by fluorescence assay relative to control
T4 sequence (whole entry): T2 sequence (O00519 whole entry)

[20] = Cmax in Sprague-Dawley rat at 3 mg/kg, po administered as single dose via gavage by LC-MS/MS analysis; format: ADME, organism-based; design: dose 3 mg/kg, route oral; details: in vivo
[21] = Oral bioavailability in Sprague-Dawley rat at 3 mg/kg administered as single dose via gavage by LC-MS/MS analysis; format: ADME, organism-based; details: in vivo
[22] = AUC (0 to 48 hrs) in Sprague-Dawley rat at 3 mg/kg, po administered as single dose via gavage by LC-MS/MS analysis; format: ADME, organism-based; design: dose 3 mg/kg, time < 48 hr, route oral; details: in vivo
Rattus norvegicus [23] = test: Antihyperalgesic activity in Sprague-Dawley rat model of cisplatin-induced peripheral neuropathy assessed as increase in paw withdrawal latency at 40 mg/kg, po administered once daily via gavage for 7 days measured 4 hrs post last dose by plantar test; format: functional, organism-based
[24] = target: T4, Fatty-acid amide hydrolase 1 (Homo sapiens); test: Substrate activity at human transmembrane domain deficient FFAH expressed in Escherichia coli assessed as parent compound remaining at 2 times IC50 after 30 mins by MS analysis
[25] = target: T4, Fatty-acid amide hydrolase 1 (Homo sapiens); test: Substrate activity at human transmembrane domain deficient FFAH expressed in Escherichia coli assessed as parent compound remaining at 2 times IC50 after 60 mins by MS analysis
[26] = target: T4, Fatty-acid amide hydrolase 1 (Homo sapiens); test: Substrate activity at human transmembrane domain deficient FFAH expressed in Escherichia coli assessed as parent compound remaining at 2 times IC50 after 15 mins by MS analysis
[27] = target: T4, Fatty-acid amide hydrolase 1 (Homo sapiens); test: Substrate activity at human transmembrane domain deficient FFAH expressed in Escherichia coli assessed as parent compound remaining at 2 times IC50 measured immediately by MS analysis
[28] = target: T4, Fatty-acid amide hydrolase 1 (Homo sapiens); test: Reversible inhibition of human transmembrane domain deficient FFAH expressed in Escherichia coli assessed as residual activity at 10 times IC50 using AAMCA as substrate preincubated for 1 hr followed by substrate addition by fluorescence assay relative to control

Row | SMILES | IC50 [1] [nM] | IC50 [2] [nM] | Drug metabolism [4] [nmol/min/mg] | Drug metabolism [5] [nmol/min/mg] | also measured
1 | O=C(Nc1cccnn1)N1CCC(=Cc2cccc(Oc3ccc(C(F)(F)F)cn3)c2)CC1 | 5.7 | 1.8 |  |  | Activity (Rattus norvegicus [3]): Active
2 | O=C(NC1CCC(=Cc2cccc(Oc3ccc(C(F)(F)F)cn3)c2)CC1)c1ccc(Cl)nc1 (racemic) | 80.7 | 5.1 | 0.06 | 0.04 | 
3 | O=C(NC1CCC(=Cc2cccc(Oc3ccc(C(F)(F)F)cn3)c2)CC1)c1cc[nH]n1 (racemic) | 266 |  |  |  | 
4 | Cc1cc(C(=O)N[C@H]2CC/C(=C/c3cccc(Oc4ccc(C(F)(F)F)cn4)c3)CC2)cnc1N (centres undefined) | 2300 | 227 |  |  | 
5 | O=C(N[C@H]1CC/C(=C/c2cccc(Oc3ccc(C(F)(F)F)cn3)c2)CC1)c1cccnc1 (centres undefined) |  | 414 |  |  | 
6 | Nc1ncc(C(=O)NC2CCC(=Cc3cccc(Oc4ccc(C(F)(F)F)cn4)c3)CC2)cn1 (racemic) |  | 2 | 0.03 | 0.02 | 
7 | Nc1ccc(C(=O)NC2CCC(=Cc3cccc(Oc4ccc(C(F)(F)F)cn4)c3)CC2)cn1 (centres undefined) |  |  |  |  | inhibition [6]: 70%
8 | Cc1cc(C(=O)NC2CCC(=Cc3cccc(Oc4ccc(C(F)(F)F)cn4)c3)CC2)cnc1N (centres undefined) |  |  |  |  | Activity (Rattus norvegicus [7]): Active; Activity (Rattus norvegicus [8]): Active; Activity (Rattus norvegicus [9]): Active; Activity (Rattus norvegicus [10]): inactive
9 | Nc1ncc(C(=O)NC2CCC(=Cc3cccc(Oc4ccc(C(F)(F)F)cn4)c3)CC2)cn1 (centres undefined) |  |  |  |  | Activity (Rattus norvegicus [7]): Active; Activity (Rattus norvegicus [8]): Active; Activity (Rattus norvegicus [9]): Active; Activity (Rattus norvegicus [10]): inactive
10 | O=C(NC1CCC(=Cc2cccc(Oc3ccc(C(F)(F)F)cn3)c2)CC1)c1ccncc1 (racemic) |  |  |  |  | inhibition [11]: 15%
11 | O=C(NC1CCC(=Cc2cccc(Oc3ccc(C(F)(F)F)cn3)c2)CC1)c1ccc(-n2cccn2)nc1 (racemic) | 6.6 | 6.7 | 0.11 | 0.09 | clearance [12]: 2.4 mL/min/kg; Vd [13]: 4.6 L/kg; Cmax [14]: 90 nM; half-life [15]: > 10 h; AUC(0-t) at 48 h [16]: 8 µM·h; AUC(0-t) at 48 h [17]: 0.9 µM·h; bioavailability [18]: 1.2%
12 | Nc1ccc(C(=O)NC2CCC(=Cc3cccc(Oc4ccc(C(F)(F)F)cn4)c3)CC2)cn1 (racemic) | 31.3 |  | 0.07 | 0.05 | 
13 | O=C(NC1CCC(=Cc2cccc(Oc3ccc(C(F)(F)F)cn3)c2)CC1)c1cncnc1 (racemic) |  |  | < 0.04 | 0.07 | 
14 | O=C(NC1CCC(=Cc2cccc(Oc3ccc(C(F)(F)F)cn3)c2)CC1)c1cn[nH]c1 (racemic) | 64.6 |  | 0.04 | < 0.04 | 
15 | Cc1cc(C(=O)NC2CCC(=Cc3cccc(Oc4ccc(C(F)(F)F)cn4)c3)CC2)cnc1N (racemic) |  |  | 0.09 | 0.04 | 
16 | O=C(NC1CCC(=Cc2cccc(Oc3ccc(C(F)(F)F)cn3)c2)CC1)c1ccc(-n2nccn2)nc1 (racemic) |  |  | 0.09 | 0.04 | 
17 | O=C(CCCCCCc1ccccc1)c1ncc(-c2ccccn2)o1 |  |  |  |  | Activity [19]: 30%
18 | O=C(NC1CCC(=Cc2cccc(Oc3ccc(C(F)(F)F)cn3)c2)CC1)c1cnc2[nH]ccc2c1 (racemic) | 17.2 |  | 0.08 | 0.04 | clearance [12]: 2.2 mL/min/kg; Vd [13]: 1 L/kg; Cmax [20]: 190 nM; bioavailability [21]: 7.2%; half-life [15]: 7.3 h; AUC(0-t) at 48 h [16]: 14.3 µM·h; AUC(0-t) at 48 h [22]: 3 µM·h
19 | Nc1ncc(C(=O)NC2CCC(=Cc3cccc(Oc4ccc(C(F)(F)F)cn4)c3)CC2)cc1Cl (racemic) | 52 | 4 | 0.06 | < 0.04 | 
20 | Nc1ncc(C(=O)N[C@H]2CC/C(=C/c3cccc(Oc4ccc(C(F)(F)F)cn4)c3)CC2)cn1 (centres undefined) | 1500 | 83 |  |  | 
21 | O=C(NC1CCC(=Cc2cccc(Oc3ccc(C(F)(F)F)cn3)c2)CC1)c1cccnc1 (centres undefined) |  |  |  |  | inhibition [6]: 60%
22 | O=C(NC1CCC(=Cc2cccc(Oc3ccc(C(F)(F)F)cn3)c2)CC1)c1cccnc1 (racemic) |  | 2.2 | 0.06 | 0.06 | 
23 | O=C(NC1CCC(=Cc2cccc(Oc3ccc(C(F)(F)F)cn3)c2)CC1)c1cccnn1 (racemic) |  | 9 |  |  | 
24 | COc1cccc([C@@]2(O)CCCC[C@@H]2CN(C)C)c1 |  |  |  |  | Activity (Rattus norvegicus [23]): Active
25 | Nc1ccc(C(=O)N[C@H]2CC/C(=C/c3cccc(Oc4ccc(C(F)(F)F)cn4)c3)CC2)cn1 (centres undefined) |  | 450 |  |  | 
26 | O=C(Nc1cccnc1)N1CCC(Cc2cccc(Oc3ccc(C(F)(F)F)cn3)c2)CC1 | 11.5 | 2.6 |  |  | Activity [24]: 54.4%; Activity [19]: inactive; Activity [25]: 40.4%; Activity [26]: 77.2%; Activity [27]: 100%; Activity [28]: 20%
